Usually Ki stands for a measure of affinity in units of concentration, obtained from inhibition or displacement.

Experimental findings from US20240226343A1, “NEUROPEPTIDE Y1 RECEPTOR (NPY1R) TARGETED THERAPEUTICS AND USES THEREOF” (RADIONETICS ONCOLOGY, INC., priority 2022, published 2024) are described below.

This assay has as its target T1, hNPY1R (Homo sapiens, UniProt P25929).
T1 construct: SK-N-MC cells endogenously expressing the NPY1R receptor; endogenous in cells; host or cells: SK-N-MC cells (crude membrane fractions)
T1 sequence (P25929 1-384): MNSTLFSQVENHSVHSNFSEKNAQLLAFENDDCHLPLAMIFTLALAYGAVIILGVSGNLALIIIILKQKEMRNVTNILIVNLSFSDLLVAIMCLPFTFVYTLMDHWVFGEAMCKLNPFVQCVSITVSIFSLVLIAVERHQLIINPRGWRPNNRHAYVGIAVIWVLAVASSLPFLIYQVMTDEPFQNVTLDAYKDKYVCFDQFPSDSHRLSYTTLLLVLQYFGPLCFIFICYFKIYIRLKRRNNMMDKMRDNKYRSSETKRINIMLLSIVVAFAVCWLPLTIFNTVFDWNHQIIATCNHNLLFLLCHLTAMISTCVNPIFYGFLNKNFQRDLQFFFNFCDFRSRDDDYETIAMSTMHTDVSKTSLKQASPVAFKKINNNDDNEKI
As to the kind of experiment: NPY1R binding assay: SK-N-MC membranes, [125I]-Peptide YY (human) competition. The following applies: SK-N-MC membranes.

Where [1] appears, read: data obtained after 120 minutes at rt, [125I]-Peptide YY, read-out: hNPY.R binding Ki* ††.
[2] abbreviates: data obtained after 60 minutes at 37° C., [125I]-Peptide YY 0.05 nM, read-out: hNPY1R binding Ki* †.

Where two headings read alike, the source gives them in different places.

Consider `CCC(=O)NCCNC(=O)/N=C(/N)NCCC[C@@H](NC(=O)C(c1ccccc1)c1cccc(OCCCCNc2c(NCCNC(=O)[C@@H](CCCCN)NC(=O)CN3CCN(CC(=O)O)CCN(CC(=O)O)CCN(CC(=O)O)CC3)c(=O)c2=O)c1)C(=O)NCc1ccc(O)cc1` (stereo in doubt) [Compound 116B-In, indium (III) 2,2′,2″-(10-(2-((6-amino-1-((2-((2-((4-(3-((R,Z)-9-amino-4-((4-hydroxybenzyl)carbamoyl)-2,11,16-trioxo-1-phenyl-3,8,10,12,15-pentaazaoctadec-9-en-1-yl)phenoxy)butyl)amino)-3,4-dioxocyclobut-1-en-1-yl)amino)ethyl)amino)-1-oxohexan-2-yl)amino)-2-oxoethyl)-1,4,7,10-tetraazacyclododecane-1,4,7-triyl)triacetate], for which, under setting [1], the Ki is less than 10 nM.

`CCC(=O)NCCNC(=O)/N=C(/N)NCCC[C@@H](NC(=O)C(c1ccccc1)c1cccc(OCCCCNC(=O)[C@@H](CCCN)NC(=O)CCNC(=O)CN2CCN(CC(=O)O)CCN(CC(=O)O)CCN(CC(=O)O)CC2)c1)C(=O)NCc1ccc(O)cc1` (single isomer, unassigned) [Compound 147A]: the Ki under setting [1] was less than 10 nM.

Consider `CCC(=O)NCCNC(=O)/N=C(/N)NCCC[C@@H](NC(=O)C(c1ccccc1)c1cccc(OCCCCNC(=O)NNC(=O)CCNC(=O)CN2CCN(CC(=O)O)CCN(CC(=O)O)CCN(CC(=O)O)CC2)c1)C(=O)NCc1c(F)cc(O)cc1F` (single isomer, unassigned) [Compound 166], for which, under setting [1], the Ki was less than 10 nM. Same read-out and setting: the figure for `N=C(N)NCCC[C@@H](NC(=O)[C@@H](c1ccccc1)c1cccc(OCCCCNC(=O)[C@H](N)CCCCNC(=O)CN2CCN(CC(=O)O)CCN(CC(=O)O)CCN(CC(=O)O)CC2)c1)C(=O)NCc1ccc(O)cc1` [Compound 138, 2,2′,2″-(10-(2-(((R)-5-amino-6-((4-(3-((S)-2-(((R)-5-guanidino-1-((4-hydroxybenzyl)amino)-1-oxopentan-2-yl)amino)-2-oxo-1-phenylethyl)phenoxy)butyl)amino)-6-oxohexyl)amino)-2-oxoethyl)-1,4,7,10-tetraazacyclododecane-1,4,7-triyl)triacetic acid] is 10 to 100 nM; for `CCC(=O)NCCNC(=O)/N=C(/N)NCCC[C@@H](NC(=O)C(c1ccccc1)c1ccc(NCCCNC(=O)CN2CCC(NC(=O)CN3CCN(CC(=O)O)CCN(CC(=O)O)CCN(CC(=O)O)CC3)CC2)cc1)C(=O)NCc1ccc(O)cc1` (single isomer, unassigned) [Compound 133B] it is less than 10 nM.

With `CCC(=O)NCCNC(=O)/N=C(/N)NCCC[C@@H](NC(=O)C(c1ccccc1)c1ccc(NC(=O)CCOCCOCCOCCOCCNC(=O)CN2CCN(CC(=O)O)CCN(CC(=O)O)CCN(CC(=O)O)CC2)cc1)C(=O)NCc1ccc(O)cc1` (single isomer, unassigned) [Compound 102A], the Ki under setting [2] was 10 to 100 nM.

Turning to `CCC(=O)NCCNC(=O)/N=C(/N)NCCC[C@@H](NC(=O)C(c1ccccc1)c1cccc(OCCCCNC(=O)[C@H](N)CCCCNC(=O)c2ccc(CNC(=O)CN3CCN(CC(=O)O)CCN(CC(=O)O)CCN(CC(=O)O)CC3)cc2)c1)C(=O)NCc1ccc(O)cc1` (single isomer, unassigned) [Compound 142A], the inhibitory constant (Ki) under setting [1] was less than 10 nM.

Consider `CCC(=O)NCCNC(=O)/N=C(/N)NCCC[C@@H](NC(=O)C(c1ccccc1)c1ccc(NCCCNC(=O)[C@H](N)CCCCNC(=O)CN2CCN(CC(=O)O)CCN(CC(=O)O)CCN(CC(=O)O)CC2)cc1)C(=O)NCc1ccc(O)cc1` (single isomer, unassigned) [Compound 132B], for which, under setting [1], the Ki is less than 10 nM.

As to `CCC(=O)NCCNC(=O)/N=C(/N)NCCC[C@@H](NC(=O)C(c1ccccc1)c1ccc(NCCCNc2c(NCCNC(=O)[C@@H](CN)NC(=O)CN3CCN(CC(=O)O)CCN(CC(=O)O)CCN(CC(=O)O)CC3)c(=O)c2=O)cc1)C(=O)NCc1ccc(O)cc1` (single isomer, unassigned) [Compound 137A], under setting [1], the Ki is less than 10 nM. Regarding `CCC(=O)NCCNC(=O)/N=C(/N)NCCC[C@@H](NC(=O)C(c1ccccc1)c1ccc(NCCNC(=O)[C@H](N)CCCNC(=O)CN2CCN(CC(=O)O)CCN(CC(=O)O)CCN(CC(=O)O)CC2)cc1)C(=O)NCc1ccc(O)cc1` (single isomer, unassigned) [Compound 143A], under setting [1], the Ki was less than 10 nM. Consider `CCC(=O)NCCNC(=O)/N=C(/N)NCCC[C@@H](NC(=O)C(c1ccccc1)c1cccc(OCCOCCNC(=O)CN2CCN(CC(=O)O)CCN(CC(=O)O)CCN(CC(=O)O)CC2)c1)C(=O)NCc1ccc(O)cc1` (stereo partly drawn) [Compound 106, 2,2′,2″-(10-(2-((2-(2-(3-((4R,Z)-9-amino-4-((4-hydroxybenzyl)carbamoyl)-2,11,16-trioxo-1-phenyl-3,8,10,12,15-pentaazaoctadec-9-en-1-yl)phenoxy)ethoxy)ethyl)amino)-2-oxoethyl)-1,4,7,10-tetraazacyclododecane-1,4,7-triyl)triacetic acid], for which, under setting [2], the Ki is less than 10 nM.
